Activity calls are given as the source filed them. The calls are words filed in the database; no cut-off is given here. Square brackets hold non-standard residues; d marks the D form. Peptide text beside a SMILES is read from it. * marks the point of attachment. ξ: configuration not given here. ξF = NC(Cc1ccccc1)C(=O)O; Cbz = O=C(OCc1ccccc1)*; CH2F = FC*
Experiments:
[1] = molecular target: T1, Calpain-1 catalytic subunit (Homo sapiens, UniProt P07384); experiment: Inhibition of human erythrocytes mu-calpain using Pep1 as substrate incubated for 30 mins under shaking condition in presence of CaCl2 by fluorescence assay; set-up: species or system Erythrocyte
T1 sequence (P07384 whole entry): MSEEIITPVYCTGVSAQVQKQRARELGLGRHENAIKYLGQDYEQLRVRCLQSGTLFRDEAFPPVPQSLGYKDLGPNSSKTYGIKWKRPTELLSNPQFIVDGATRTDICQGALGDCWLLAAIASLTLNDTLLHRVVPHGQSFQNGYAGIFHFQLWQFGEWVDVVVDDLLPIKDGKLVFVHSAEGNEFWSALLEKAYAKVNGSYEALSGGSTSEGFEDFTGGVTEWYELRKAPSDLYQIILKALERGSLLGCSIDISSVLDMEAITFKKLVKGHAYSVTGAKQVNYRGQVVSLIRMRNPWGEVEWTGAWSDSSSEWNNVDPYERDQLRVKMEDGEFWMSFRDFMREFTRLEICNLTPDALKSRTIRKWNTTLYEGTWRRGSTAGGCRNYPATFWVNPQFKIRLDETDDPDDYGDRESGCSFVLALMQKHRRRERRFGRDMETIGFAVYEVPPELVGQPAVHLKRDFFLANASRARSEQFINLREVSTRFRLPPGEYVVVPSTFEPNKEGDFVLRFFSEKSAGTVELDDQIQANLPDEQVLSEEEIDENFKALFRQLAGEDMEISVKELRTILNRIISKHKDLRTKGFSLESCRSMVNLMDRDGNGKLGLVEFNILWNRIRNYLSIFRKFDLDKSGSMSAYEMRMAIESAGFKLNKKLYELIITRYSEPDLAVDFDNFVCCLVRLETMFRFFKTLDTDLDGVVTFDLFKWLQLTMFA

Cathepsin B [2] = molecular target: T2, Cathepsin B (Homo sapiens, UniProt P07858); experiment: Inhibition of cathepsin B (unknown origin) using RR-AMC as substrate preincubated for 30 mins followed by substrate addition and further incubated for 30 mins under shaking condition by fluorescence assay
Procathepsin L = Procathepsin L (Homo sapiens, UniProt P07711); experiment: Inhibition of cathepsin L (unknown origin) using Z-FR-AMC as substrate preincubated for 30 mins followed by substrate addition and further incubated for 30 mins under shaking condition by fluorescence assay
Procathepsin L, sequence (P07711 whole entry): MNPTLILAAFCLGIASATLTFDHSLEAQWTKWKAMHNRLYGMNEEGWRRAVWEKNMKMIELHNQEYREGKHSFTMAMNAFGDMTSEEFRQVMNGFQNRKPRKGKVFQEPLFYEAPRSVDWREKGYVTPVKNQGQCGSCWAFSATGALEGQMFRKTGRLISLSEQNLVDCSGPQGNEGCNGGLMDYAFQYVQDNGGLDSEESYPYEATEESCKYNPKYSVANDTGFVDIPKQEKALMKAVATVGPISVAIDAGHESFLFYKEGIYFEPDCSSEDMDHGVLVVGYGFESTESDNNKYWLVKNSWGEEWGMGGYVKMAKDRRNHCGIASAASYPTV

Cathepsin B [3] = molecular target: T2, Cathepsin B; experiment: Inhibition of cathepsin B in human SH-SY5Y cells using RR-AMC as substrate by fluorescence microplate reader assay; format: cell-based
SH-SY5Y [4] = experiment: Neuroprotective activity in human SH-SY5Y cells assessed as reduction in GOx-induced PARP cleavage at 5 uM pretreated with GOx for 4 hrs followed by compound treatment by Western blot analysis; format: functional, cell-based
SH-SY5Y [5] = experiment: Reduction in GOx-induced amyloid beta(1 to 42) level in human SH-SY5Y cells pretreated with GOx for 4 hrs followed by compound treatment by sandwich ELISA; format: functional, cell-based
[6] = molecular target: T3, Calpain-1 catalytic subunit (Homo sapiens) (UniProt P07384); experiment: Inhibition of mu-calpain in human SH-SY5Y cells assessed as reduction in tau phosphorylation by Western blot analysis; format: cell-based
T3 sequence (whole entry): T1 sequence (P07384 whole entry)

[7] = molecular target: T3, Calpain-1 catalytic subunit (Homo sapiens); experiment: Inhibition of mu-calpain in human SH-SY5Y cells assessed as reduction in GOx-induced […] pretreated with GOx for 4 hrs followed by compound treatment by Western blot analysis; format: cell-based
[8] = molecular target: T3, Calpain-1 catalytic subunit (Homo sapiens); experiment: Inhibition of mu-calpain in human SH-SY5Y cells assessed as reduction in GOx-induced MAPK phosphorylation pretreated with GOx for 4 hrs followed by compound treatment by Western blot analysis; format: cell-based
[9] = molecular target: T1, Calpain-1 catalytic subunit; experiment: (§1) Competitive inhibition of human erythrocytes mu-calpain using varying level of Pep2 as substrate by Lineweaver-Burk plot analysis; set-up: species or system Erythrocyte
[10] = molecular target: T3, Calpain-1 catalytic subunit (Homo sapiens); experiment: as §1; conditions: Erythrocyte
[11] = molecular target: T3, Calpain-1 catalytic subunit (Homo sapiens); experiment: Inhibition of mu-calpain (unknown origin) expressed in SH-SY5Y cells assessed as reduction in p35 cleavage at 20 uM using p35 as substrate measured after 210 mins by fluorescence microplate reader assay; format: cell-based
SH-SY5Y [12] = experiment: Inhibition of mu-calpain/cathepsin B in human SH-SY5Y cells assessed as reduction in GOx-induced BACE1 upregulation at 20 uM pretreated with GOx for 4 hrs followed by compound treatment by Western blot analysis; format: cell-based
Cathepsin B [13] = molecular target: T2, Cathepsin B; experiment: Competitive inhibition of cathepsin B (unknown origin) using varying level of RR-AMC as substrate by Lineweaver-Burk plot analysis
[14] = molecular target: T3, Calpain-1 catalytic subunit (Homo sapiens); experiment: Inhibition of mu-calpain (unknown origin) expressed in HEK293T cells assessed as reduction in p35 cleavage at 5 uM using p35 as substrate measured after 210 mins by fluorescence microplate reader assay; format: cell-based
SH-SY5Y [15] = experiment: Neuroprotective activity in human SH-SY5Y cells assessed as reduction in GOx-induced caspase 3 cleavage pretreated with GOx for 4 hrs followed by compound treatment by Western blot analysis; format: functional, cell-based
[16] = molecular target: T1, Calpain-1 catalytic subunit; experiment: Inhibition of human erythrocytes mu-calpain using Pep2 as substrate incubated for 30 mins under shaking condition in presence of CaCl2 by fluorescence assay; set-up: species or system Erythrocyte
SH-SY5Y [17] = experiment: Neuroprotective activity in human SH-SY5Y cells assessed as reduction in GOx-induced PARP cleavage at 20 uM pretreated with GOx for 4 hrs followed by compound treatment by Western blot analysis; format: functional, cell-based
Cathepsin B [18] = molecular target: T2, Cathepsin B; experiment: Inhibition of human liver cathepsin B using RR-AMC as substrate preincubated for 30 mins followed by substrate addition and further incubated for 30 mins under shaking condition by fluorescence assay; format: tissue-based

| Compound | IC50 [1] [µM] | IC50 (Cathepsin B [2]) [µM] | IC50 (Procathepsin L) [µM] | further results |
| --- | --- | --- | --- | --- |
| COc1ccccc1/C=C/C=C/C(=O)c1ccc(O)cc1 | 13.7 | 33.1 | 26.1 | – |
| COc1cc(/C=C/C=C/C(=O)c2ccc(O)cc2)ccc1O | 16.8 | 11.1 | 16 | IC50 (Cathepsin B [3]): 3.81 µM; Activity (SH-SY5Y [4]): Active; Activity (SH-SY5Y [5]): Active; inhibition [6]: Active; inhibition [7]: Active; inhibition [8]: Active; Ki [9]: 5.73 µM; inhibition [10]: Dose-dependent effect; inhibition [11]: Active; inhibition (SH-SY5Y [12]): Active; Ki (Cathepsin B [13]): 4.74 µM; inhibition (Cathepsin B [13]): Dose-dependent effect; inhibition [14]: Active; Activity (SH-SY5Y [15]): Active |
| O=C(/C=C/c1ccc(O)c2ccccc12)c1ccco1 | 40.9 | > 50 | 33 | – |
| COc1cc(O)ccc1C(=O)/C=C/c1ccc(O)cc1 | – | – | – | IC50 [16]: 16.9 µM |
| COc1ccc(/C=C/C(=O)c2ccc(O)cc2)c2ccccc12 | 10.2 | 14.5 | 25.8 | – |
| COc1cc(O)ccc1C(=O)/C=C/c1ccc(O)c2ccccc12 | 23.8 | 15.6 | 15.6 | – |
| COc1ccc(O)cc1/C=C/C(=O)c1ccc(O)cc1 | – | – | – | IC50 [16]: 16.7 µM |
| CCOC(=O)[C@H]1O[C@@H]1C(=O)N[C@@H](CC(C)C)C(=O)NCCC(C)C [ALOXISTATIN] | 62.3 | 14.4 | 2.41 | Activity (SH-SY5Y [17]): Active |
| O=C(/C=C/c1ccc(O)c2ccccc12)c1cccs1 | > 50 | > 50 | 35.4 | – |
| COc1ccccc1/C=C/C=C/C(=O)c1cccnc1 | 19.1 | 33.3 | 48.4 | – |
| O=C(N[C@@H](Cc1ccccc1)C(=O)N[C@@H](Cc1ccccc1)C(=O)CF)OCc1ccccc1 (Cbz-Phe-Phe-CH2F) | 0.397 | – | – | – |
| CCOc1cc(O)ccc1C(=O)/C=C/C=C/c1ccccc1OC | 13 | 13.9 | 27 | – |
| COc1ccc(/C=C/C(=O)/C=C/c2ccc(O)cc2OC)cc1 | 46.6 | 37.8 | > 50 | – |
| O=C(/C=C/c1ccc(O)c2ccccc12)c1ccc(O)cc1 | 69.6 | 14.8 | 21.6 | – |
| CCCNC(=O)[C@H]1O[C@@H]1C(=O)N[C@H](C(=O)N1CCC[C@H]1C(=O)O)[C@@H](C)CC | > 100 | – | – | Activity (SH-SY5Y [17]): Active |
| COc1cc(/C=C/C(=O)c2ccco2)ccc1O | – | – | – | IC50 [16]: 15.4 µM; IC50 (Cathepsin B [18]): 20.6 µM |
| CC(C)[C@H](NC(=O)OCc1ccccc1)C(=O)NC(C=O)Cc1ccccc1 (stereo partly drawn) (Cbz-Val-[ξF]-aldehyde) | – | – | – | Activity (SH-SY5Y [17]): Active |
| CCCC[C@@H](C=O)NC(=O)[C@H](CC(C)C)NC(=O)OCc1ccccc1 [CALPEPTIN] | 0.297 | > 100 | 0.072 | – |
| O=C(/C=C/c1ccc(O)c2ccccc12)c1ccc(O)cc1O | 18.8 | 6.34 | 14.9 | IC50 (Cathepsin B [3]): 13 µM; Activity (SH-SY5Y [4]): Active; Activity (SH-SY5Y [5]): Active; inhibition [6]: Active; inhibition [7]: Active; inhibition [8]: Active; Ki [9]: 19.3 µM; inhibition [10]: Dose-dependent effect; inhibition [11]: Active; inhibition (SH-SY5Y [12]): Active; Ki (Cathepsin B [13]): 10.6 µM; inhibition (Cathepsin B [13]): Dose-dependent effect; inhibition [14]: Active; Activity (SH-SY5Y [15]): Active |

Source: ChEMBL document CHEMBL4715741, “Neuroprotective effect of synthetic chalcone derivatives as competitive dual inhibitors against μ-calpain and cathepsin B through the downregulation of tau phosphorylation and insoluble Aβ peptide formation” (Eur J Med Chem, 2016)
